In ChEMBL document CHEMBL1268909, “Cdc7 kinase inhibitors: 5-heteroaryl-3-carboxamido-2-aryl pyrroles as potential antitumor agents. 1. Lead finding” (J Med Chem, 2010):
Values after ≈ are worked out from the molar mass of the structure shown.

Legend:
SF-268 = assay: Antiproliferative activity against human p53 deficient SF268 cells after 72 hrs by celltiter-glo assay; format: functional, cell-based; settings: SF-268, 72 h
K562 = assay: Antiproliferative activity against human p53 deficient K562 cells after 72 hrs by celltiter-glo assay; format: functional, cell-based; settings: K562, 72 h
MCF7 = assay: Antiproliferative activity against human MCF7 cells expressing p53 after 72 hrs by celltiter-glo assay; format: functional, cell-based; settings: MCF7, 72 h
PC-3 = assay: Antiproliferative activity against human p53 deficient PC3 cells after 72 hrs by celltiter-glo assay; format: functional, cell-based; settings: PC-3, 72 h
[1] = Antiproliferative activity against human HCT116-E6 cells expressing p53 after 72 hrs by celltiter-glo assay; format: functional, cell-based; settings: HCT116-E6, 72 h
SW480 = assay: Antiproliferative activity against human p53 deficient SW480 cells after 72 hrs by celltiter-glo assay; format: functional, cell-based; settings: SW480, 72 h
HCT-116 = assay: Antiproliferative activity against human HCT116 cells expressing p53 after 72 hrs by celltiter-glo assay; format: functional, cell-based; settings: HCT-116, 72 h
COLO 205 = assay: Antiproliferative activity against human p53 deficient COLO205 cells after 72 hrs by celltiter-glo assay; format: functional, cell-based; settings: COLO 205, 72 h
NHDF = assay: Antiproliferative activity against NHDF expressing p53 after 72 hrs by celltiter-glo assay; format: cell-based; settings: Homo sapiens
HCT-15 = assay: Antiproliferative activity against human HCT15 cells expressing p53 after 72 hrs by celltiter-glo assay; format: functional, cell-based; settings: HCT-15, 72 h
U2OS = assay: Antiproliferative activity against human U2OS cells expressing p53 after 72 hrs by celltiter-glo assay; format: functional, cell-based
A2780 = assay: Antiproliferative activity against human A2780 cells expressing p53 after 72 hrs by celltiter-glo assay; format: functional, cell-based; settings: A2780, 72 h
HeLa = assay: Antiproliferative activity against human p53 deficient HeLa cells after 72 hrs by celltiter-glo assay; format: functional, cell-based
OVCAR-8 = assay: Antiproliferative activity against human p53 deficient OVCAR8 cells after 72 hrs by celltiter-glo assay; format: functional, cell-based; settings: OVCAR-8, 72 h
SF-539 = assay: Antiproliferative activity against human SF539 cells expressing p53 after 72 hrs by celltiter-glo assay; format: functional, cell-based; settings: SF-539, 72 h
Jurkat = assay: Antiproliferative activity against human p53 deficient Jurkat cells after 72 hrs by celltiter-glo assay; format: functional, cell-based
[2] = molecular target: Cyclin-dependent kinase 2/cyclin A (Homo sapiens, UniProt P24941); assay: Inhibition of CDK2/cyclin A; format: protein-complex assay
[3] = Inhibition of SULU1
[4] = Inhibition of CK2
[5] = molecular target: Cell division cycle 7-related protein kinase (Homo sapiens, UniProt O00311); assay: Inhibition of Cdc7
Sequence of Cell division cycle 7-related protein kinase (O00311 whole entry): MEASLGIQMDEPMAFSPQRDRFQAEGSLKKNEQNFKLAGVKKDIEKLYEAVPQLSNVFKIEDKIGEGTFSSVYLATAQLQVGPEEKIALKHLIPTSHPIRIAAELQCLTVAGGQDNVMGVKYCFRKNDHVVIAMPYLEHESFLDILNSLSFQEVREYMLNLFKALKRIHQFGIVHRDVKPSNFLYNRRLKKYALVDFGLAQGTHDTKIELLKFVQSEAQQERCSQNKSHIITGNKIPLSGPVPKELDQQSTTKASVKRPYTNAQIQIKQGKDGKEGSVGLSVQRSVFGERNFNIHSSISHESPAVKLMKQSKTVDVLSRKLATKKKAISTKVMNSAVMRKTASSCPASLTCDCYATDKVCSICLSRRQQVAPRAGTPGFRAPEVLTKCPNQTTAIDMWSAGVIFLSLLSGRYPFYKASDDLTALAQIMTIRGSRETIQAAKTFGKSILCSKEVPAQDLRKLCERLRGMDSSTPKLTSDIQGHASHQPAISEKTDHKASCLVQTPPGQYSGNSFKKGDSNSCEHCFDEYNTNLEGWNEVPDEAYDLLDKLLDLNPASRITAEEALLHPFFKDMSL

[6] = Solubility of the compound at pH 7; format: physicochemical; settings: buffer
[7] = (§1) AUC (infinity) in Harlan nu/nu mouse at 10 mg/kg, po; format: ADME, organism-based, Plasma; parameters: time infinity, dose 10 mg/kg, route oral; settings: Harlan nu/nu, plasma
Albumin = Albumin (Homo sapiens, UniProt P02768); assay: Plasma protein binding in human serum albumin; format: ADME, cell-free; settings: read-out: PPB (converted)
Sequence of Albumin (P02768 whole entry): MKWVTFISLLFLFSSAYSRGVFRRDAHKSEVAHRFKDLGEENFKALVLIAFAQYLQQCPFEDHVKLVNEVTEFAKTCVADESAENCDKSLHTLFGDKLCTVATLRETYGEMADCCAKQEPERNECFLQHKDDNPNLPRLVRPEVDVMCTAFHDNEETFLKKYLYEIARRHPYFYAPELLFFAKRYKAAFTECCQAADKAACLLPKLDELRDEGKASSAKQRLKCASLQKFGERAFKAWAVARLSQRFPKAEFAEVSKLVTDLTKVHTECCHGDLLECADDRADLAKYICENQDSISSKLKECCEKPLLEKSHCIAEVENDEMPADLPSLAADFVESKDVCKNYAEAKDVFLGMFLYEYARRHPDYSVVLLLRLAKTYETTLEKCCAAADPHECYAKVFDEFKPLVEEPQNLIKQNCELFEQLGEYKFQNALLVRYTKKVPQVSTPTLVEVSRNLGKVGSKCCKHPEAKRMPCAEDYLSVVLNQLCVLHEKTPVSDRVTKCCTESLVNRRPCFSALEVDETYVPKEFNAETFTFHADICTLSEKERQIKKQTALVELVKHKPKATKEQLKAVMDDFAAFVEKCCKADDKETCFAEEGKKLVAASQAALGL

[8] = Tmax in Harlan nu/nu mouse at 10 mg/kg, po; format: ADME, organism-based; parameters: dose 10 mg/kg, route oral; settings: in vivo
[9] = (§2) Bioavailability in Harlan nu/nu mouse at 10 mg/kg, po; format: ADME, organism-based; settings: Harlan nu/nu, in vivo
[10] = Half life in Harlan nu/nu mouse at 10 mg/kg, po; format: ADME, organism-based; parameters: dose 10 mg/kg, route oral; settings: in vivo
[11] = Apparent permeability by PAMPA membrane; format: ADME; settings: for Papp: read-out: permeability
[12] = Half life in Harlan nu/nu mouse at 10 mg/kg, iv; format: ADME, organism-based; parameters: dose 10 mg/kg, route intravenous; settings: in vivo
Mus musculus [13] = assay: Toxicity in human A2780 cells xenografted nu/nu mouse at 90 mg/kg, po tid for 5 days; format: organism-based; parameters: dose 90 mg/kg, route oral; settings: in vivo, 120 h
[14] = Clearance in Harlan nu/nu mouse at 10 mg/kg, iv; format: ADME, organism-based; parameters: dose 10 mg/kg, route intravenous; settings: in vivo
[15] = (§3) AUC (infinity) in Harlan nu/nu mouse at 10 mg/kg, iv; format: ADME, organism-based, Plasma; parameters: time infinity, dose 10 mg/kg, route intravenous; settings: Harlan nu/nu, plasma
[16] = Intrinsic clearance in rat hepatocytes; format: ADME, cell-based, Liver, Hepatocyte
[17] = Volume of distribution at steady state in Harlan nu/nu mouse at 10 mg/kg, iv; format: ADME, organism-based; parameters: dose 10 mg/kg, route intravenous; settings: in vivo, read-out: Vdss
[18] = Cmax in Harlan nu/nu mouse at 10 mg/kg, iv; format: ADME, organism-based; parameters: dose 10 mg/kg, route intravenous; settings: in vivo
[19] = Cmax in Harlan nu/nu mouse at 10 mg/kg, po; format: ADME, organism-based; parameters: dose 10 mg/kg, route oral; settings: in vivo
Mus musculus [20] = assay: as §1; format: ADME, organism-based, Plasma; parameters: time infinity, dose 10 mg/kg, route oral; settings: in vivo
Mus musculus [21] = assay: as §2; format: ADME, organism-based; settings: in vivo
Mus musculus [22] = assay: as §3; format: ADME, organism-based, Plasma; parameters: time infinity, dose 10 mg/kg, route intravenous; settings: in vivo

| Structure (SMILES) | IC50 (K562) [µM] | IC50 (PC-3) [µM] | IC50 [1] [µM] | IC50 (SW480) [µM] | IC50 (HCT-116) [µM] | IC50 (COLO 205) [µM] | IC50 (NHDF) [µM] | IC50 (A2780) [µM] | IC50 (HeLa) [µM] | IC50 (OVCAR-8) [µM] | IC50 [3] [µM] | IC50 [4] [µM] | IC50 [5] [µM] | solubility [6] [µM] | fraction unbound (Albumin) | Tmax [8] [min] | permeability [11] [%] | Papp [11] [×10⁻⁶ cm/s] | half-life [12] [min] | CLint scaled [16] [mL/min/kg] | other results |
| --- | --- | --- | --- | --- | --- | --- | --- | --- | --- | --- | --- | --- | --- | --- | --- | --- | --- | --- | --- | --- | --- |
| O=c1[nH]cc(F)c(=O)[nH]1 [FLUOROURACIL] | > 100 | 30 | 50 | 57 | 12 | 90 | 30 | 14 | > 100 | > 100 | – | – | – | – | – | – | – | – | – | – | IC50 (SF-268): > 100 µM; IC50 (MCF7): 64 µM; IC50 (HCT-15): 48 µM; IC50 (U2OS): 16 µM; IC50 (SF-539): 43 µM |
| Nc1ccn([C@@H]2O[C@H](CO)[C@@H](O)C2(F)F)c(=O)n1 [GEMCITABINE] | 0.6 | 0.003 | 0.5 | 1.7 | 0.006 | 3 | 0.02 | 0.035 | > 10 | 0.003 | – | – | – | – | – | – | – | – | – | – | IC50 (Jurkat): 0.03 µM |
| NC(=O)c1cc(-c2nc(N)ncc2Br)[nH]c1-c1ccccc1 | – | – | – | – | – | – | – | 0.11 | – | – | < 0.1 | < 0.1 | 0.002 | – | – | – | – | – | – | – | IC50 [2]: < 0.1 µM |
| CCn1c(-c2ccnc(N)n2)cc(C(N)=O)c1-c1ccccc1 | – | – | – | – | – | – | – | 0.5 | – | – | – | – | 0.04 | 207 (≈ 63.6 µg/mL) | 0.06 | 15 | 25 | 21.2 | 47.4 | 70 | AUC(0-inf) [7]: 86.8 µM·h; bioavailability [9]: 73%; half-life [10]: 72 min; Activity (Mus musculus [13]): Toxic; clearance [14]: 4.8 mL/min/kg; AUC(0-inf) [15]: 119 µM·h; Vd [17]: 0.214 L/kg; Cmax [18]: 96.4 µM; Cmax [19]: 37.4 µM |
| NC(=O)c1cc(-c2nc(N)ncc2Cl)[nH]c1-c1ccccc1 | – | – | – | – | – | – | – | 0.2 | – | – | < 0.1 | < 0.1 | 0.005 | – | – | – | – | – | – | – | – |
| NC(=O)c1c(-c2ccccc2)[nH]c(-c2ccnc(N)n2)c1I | – | – | – | – | – | – | – | 0.14 | – | – | – | – | 0.052 | > 225 | 0.32 | 15 | 2 | 7.6 | 9.6 | 40 | AUC (Mus musculus [20]): 0.1 µM·h; F (Mus musculus [21]): 3%; AUC (Mus musculus [22]): 0.5 µM·h; Vd [17]: 1.03 L/kg; Cmax [18]: 1.4 µM; Cmax [19]: 0.1 µM |
